Assay [1] has as its target Neuronal acetylcholine receptor; alpha4/beta2 (Rattus norvegicus, UniProt P09483+P12390). Nature of the assay: Displacement of [3H]cystisine from nicotinic alpha-4-beta-2 receptor in rat brain. Type of assay: tissue-based. (Loss of bound radioactivity is the signal in a displacement assay; it reports binding, not function.)
The target of assay [2] is Neuronal acetylcholine receptor subunit alpha-7 (Rattus norvegicus, UniProt Q05941). In words: Displacement of [3H]alpha-bungaro-toxine from nicotinic alpha-7 receptor in rat brain. Type of assay: tissue-based.
The target in assay [3] is Muscarinic acetylcholine receptor. Nature of the assay: Displacement of [3H]oxotremorine from muscarinic receptor in rat brain. Type of assay: tissue-based.
For assay [4], the species on record is Rattus norvegicus. Nature of the assay: Increase in cortical acetyl choline levels in rat by microdialysis. It is filed as functional, organism-based.
The species named for assay [5] is Rattus norvegicus. Nature of the assay: Effect on memory in Wistar rat by social recognition test. It is filed as functional, organism-based.

We go through 25 molecules from ChEMBL document CHEMBL1143114, “Preparation and affinity profile of novel nicotinic ligands” (Bioorg Med Chem Lett, 2008).

Active and inactive are the calls of the source. The rule behind the calls is not given here.

Neuronal acetylcholine receptor subunit alpha-7, sequence (Q05941 whole entry): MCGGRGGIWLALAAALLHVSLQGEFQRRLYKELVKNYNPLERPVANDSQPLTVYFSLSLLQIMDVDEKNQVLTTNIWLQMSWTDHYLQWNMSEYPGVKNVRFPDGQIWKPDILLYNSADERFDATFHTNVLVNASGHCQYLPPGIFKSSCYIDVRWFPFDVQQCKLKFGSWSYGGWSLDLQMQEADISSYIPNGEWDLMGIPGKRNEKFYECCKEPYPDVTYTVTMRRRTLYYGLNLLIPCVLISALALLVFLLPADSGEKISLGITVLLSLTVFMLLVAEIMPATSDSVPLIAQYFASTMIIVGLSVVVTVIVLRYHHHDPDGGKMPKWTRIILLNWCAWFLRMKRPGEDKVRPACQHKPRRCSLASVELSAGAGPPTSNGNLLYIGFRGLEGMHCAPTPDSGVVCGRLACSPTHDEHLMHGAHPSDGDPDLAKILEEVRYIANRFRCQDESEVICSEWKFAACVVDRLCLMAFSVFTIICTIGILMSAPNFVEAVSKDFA
Neuronal acetylcholine receptor; alpha4/beta2, sequence (P09483 whole entry): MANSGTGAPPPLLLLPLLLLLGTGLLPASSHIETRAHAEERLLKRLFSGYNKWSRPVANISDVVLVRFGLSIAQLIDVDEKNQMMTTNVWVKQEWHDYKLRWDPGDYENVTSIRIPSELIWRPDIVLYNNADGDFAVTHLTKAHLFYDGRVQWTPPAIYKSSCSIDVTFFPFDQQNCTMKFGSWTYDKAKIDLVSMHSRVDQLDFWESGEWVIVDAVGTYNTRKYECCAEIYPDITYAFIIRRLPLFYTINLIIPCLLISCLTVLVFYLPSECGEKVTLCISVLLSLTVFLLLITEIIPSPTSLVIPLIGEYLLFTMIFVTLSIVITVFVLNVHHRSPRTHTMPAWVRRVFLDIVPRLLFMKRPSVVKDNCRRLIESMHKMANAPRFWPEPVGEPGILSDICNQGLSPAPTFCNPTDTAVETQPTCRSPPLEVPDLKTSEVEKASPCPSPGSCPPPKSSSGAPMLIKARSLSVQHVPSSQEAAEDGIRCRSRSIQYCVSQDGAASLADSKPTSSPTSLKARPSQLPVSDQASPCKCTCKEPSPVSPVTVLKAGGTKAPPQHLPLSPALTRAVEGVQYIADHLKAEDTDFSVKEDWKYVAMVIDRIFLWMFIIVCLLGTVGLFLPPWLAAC
Neuronal acetylcholine receptor; alpha4/beta2, sequence (P12390 whole entry): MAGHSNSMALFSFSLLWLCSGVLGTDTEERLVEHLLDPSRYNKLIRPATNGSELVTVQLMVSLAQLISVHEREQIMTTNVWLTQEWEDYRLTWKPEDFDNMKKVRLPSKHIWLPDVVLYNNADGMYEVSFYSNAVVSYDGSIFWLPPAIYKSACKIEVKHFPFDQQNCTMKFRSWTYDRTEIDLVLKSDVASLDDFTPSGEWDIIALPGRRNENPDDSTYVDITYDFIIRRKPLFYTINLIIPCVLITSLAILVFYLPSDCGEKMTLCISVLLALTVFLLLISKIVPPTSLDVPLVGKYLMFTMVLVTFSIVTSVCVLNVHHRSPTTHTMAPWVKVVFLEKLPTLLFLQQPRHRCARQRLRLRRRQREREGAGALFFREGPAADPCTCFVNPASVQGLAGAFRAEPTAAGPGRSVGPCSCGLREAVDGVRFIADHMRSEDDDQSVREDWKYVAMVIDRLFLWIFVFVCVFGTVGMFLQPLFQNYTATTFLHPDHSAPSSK

The term Ki denotes the equilibrium dissociation constant of an inhibitor or competing ligand from its target. Higher therefore signals weaker binding. With `CNC1(/C=C\COc2cccnc2)CC1.Cl`, the Ki in assay [1] is 2280 nM; in assay [2] it was more than 10000 nM; in assay [3], more than 10000 nM.
Consider `CNC1(CCCOc2cccnc2)CC1.O=C(O)/C=C/C(=O)O`, for which the Ki in assay [1] was 2460 nM; in assay [2], more than 10000 nM; in assay [3], more than 10000 nM.
As to `CNC1(COc2cncc(Br)c2)CC1.Cl`, the Ki in assay [1] is 1.07 nM; in assay [2], more than 10000 nM; in assay [3], more than 10000 nM.
In assay [1], `CN(C)C1(COc2cncc(Br)c2)CC1` had a Ki of 273 nM.
For the molecule `CNC1(COc2ccc(C)nc2)CC1.Cl`, the Ki in assay [1] was 40 nM; in assay [2] it was more than 10000 nM; in assay [3] it was more than 10000 nM.
In the case of `CN(C)C1(COc2cccnc2)CC1.Cl`, the results for the Ki in assay [1], in assay [2] and in assay [3] were 95 nM, more than 10000 nM and more than 10000 nM, respectively.
`CN(C)C1(COc2cnc(Cl)c(Br)c2)CC1` had a Ki in assay [1] of 110 nM.
As for `C#Cc1cncc(OCC2(NC)CC2)c1.Cl`, the results for the Ki in assay [1], in assay [2] and in assay [3] were 6.56 nM, more than 10000 nM and more than 10000 nM, respectively.
`CNC1(/C=C/COc2cccnc2)CC1.Cl`: the Ki in assay [1] is 1100 nM; in assay [2] it was more than 10000 nM; in assay [3] it was more than 10000 nM.
In assay [1], `Cc1ccc(OCC2(N(C)C)CC2)cn1` had a Ki of 1090 nM.
Same read-out and setting: in the case of `NC1(COc2ccc(Cl)nc2)CC1` it was 98 nM.
For `CNC1(COc2cnc(Cl)c(Br)c2)CC1.Cl`, the Ki in assay [1] was 5.37 nM; in assay [2] it was more than 10000 nM; in assay [3], more than 10000 nM.
On to `CCNC1(COc2cccnc2)CC1`, for which the Ki in assay [1] is 1010 nM; in assay [2] it was more than 10000 nM; in assay [3], more than 10000 nM.
Regarding `CNC1(COc2ccc(Br)nc2)CC1.Cl`, the inhibitory constant (Ki) in assay [1] is 38.8 nM; in assay [2], more than 10000 nM; in assay [3], more than 10000 nM.
Regarding `c1cncc(OCC2(N3CCCC3)CC2)c1`, the Ki was 1610 nM in assay [1], more than 10000 nM in assay [2] and more than 10000 nM in assay [3].
For `CN(C)C1(COc2ccc(Cl)nc2)CC1`, in assay [1], the affinity, expressed as Ki, was 304 nM.
For `CNC1(/C=C/c2cccnc2)CC1.O=C(O)/C=C/C(=O)O`, the Ki in assay [1] is 1160 nM; in assay [2], 3460 nM; in assay [3], more than 10000 nM.
For `CNC1(CCc2cccnc2)CC1.Cl`, in that order: 251 nM, 1910 nM and more than 10000 nM.
For `C=Cc1cncc(OCC2(NC)CC2)c1.Cl`, in that order: 70.1 nM, more than 10000 nM and more than 10000 nM.
`CN(C)C1(COc2ccc(Br)nc2)CC1`: the inhibition constant Ki in assay [1] is 394 nM.
Regarding `Cc1ccc(OCC2(N)CC2)cn1`, the Ki in assay [1] was determined as 266 nM.
In the case of `CNC1(CCOc2cccnc2)CC1.O=C(O)/C=C/C(=O)O`, the Ki in assay [1] was 109 nM; in assay [2] it was more than 10000 nM; in assay [3] it was more than 10000 nM.
For `CNC1(COc2ccc(Cl)nc2)CC1.Cl`, the values for the Ki in assay [1], in assay [2] and in assay [3] were 13 nM, more than 10000 nM and more than 10000 nM, respectively.
Consider `Cl.NC1(COc2cccnc2)CC1`, for which the values for the Ki in assay [1], in assay [2] and in assay [3] were 34 nM, more than 10000 nM and more than 10000 nM, respectively.
On to `CNC1(COc2cccnc2)CC1.Cl`, for which the Ki in assay [1] was 3 nM; in assay [2] it was more than 10000 nM; in assay [3], more than 10000 nM. The Activity entry in assay [4] was “Dose-dependent effect”. Further, the outcome in assay [5] was Active.
